According to patent US9073885B2, “Vitamin D3 lactone derivatives” (Teijin Pharma Limited, priority 2003, dated 2015):
pIC50: −log10 of the molar value.

Test system: HL-60 cells
Assay: Vitamin D3 antagonist action: inhibition of HL-60 cell differentiation induced by 1α,25-dihydroxyvitamine D3 (NBT reducing activity)
Type: cell-based
Settings: Homo sapiens, HL-60, 96 h, inhibition of NBT reducing activity induced by 1×10^-8 M 1α,25-dihydroxyvitamine D3, 4 days
From the text: The Vitamin D3 Antagonist Action Determined by Using the Induction of HL-60 Cell Differentiation by 1α,25-dihydroxyvitamine D3 as an Indicator
(1) HL-60 cells that were purchased from a cell bank (Japanese Cancer Research Resources Bank, Cell No. JCRB0085) were used. The cells were maintained as a frozen preservation stock to prevent changes in cellular characteristics by subculture. The stock was thawed before starting the experiment, and the cells which subsequently initiated subculture were used. The cells with subcultivation approximately over one month to a half year were used for the experiment. The subcultivation was performed by first centrifuging and collecting cells in suspension culture, and then diluting the collected cells by approximately a factor of 100 to a concentration of 1×10^4 to 2×10^4 cells/ml in a fresh culture medium. An RPMI-1640 medium with 10% fetal bovine serum was used as the culture medium. […]
(3) The induction of nitroblue tetrazolium (hereinafter referred to as NBT) reducing activity was used as an indicator of the induction of HL-60 cell differentiation. The NBT reducing activity was measured according to the procedures described below. […]

Compound `C=C1C(=O)OC(C[C@@H](C)[C@H]2CC[C@H]3/C(=C/C=C4/C[C@@H](O)C[C@H](O)C4=C)CCC[C@]23C)C1CCO` (stereo partly drawn) [Compound No. 114a, 20(R)-(tetrahydro-3-methylene-2-furanone-4-(2-hydroxyethyl)-5-yl)methyl-9,10-secopregna-5(Z),7(E),10(19)-triene-1α,3β-diol] has a pIC50 greater than 8.00.
